# Patent publication US20140329863A1 (priority 2011, published 2014)
# System: N2a-cl3 cells
# Conditions: not given
Compound,Potency (μM) Cell Viability,Dividing Cells V (cell viability percentages),Non-dividing Cells V (cell viability percentages),"Potency Cell Viability, mg/L"
CCOc1ccc(/N=N/c2ccc(N)cc2N)cc1 [Ethoxazine],>10 µM,–,–,–
CCN1CCN(c2ccc(Nc3ccnc4cc5ccccc5cc34)cc2)CC1 [IND-2118],–,25%,24%,–
Cc1ccc2[nH]c3c(c2c1)CCCC3NCC12CC3CC(CC(C3)C1)C2 (stereo not drawn) [IND-4176],–,9%,–,–
Cc1ccc2[nH]c3c(c2c1)CCCC3NC1CCCCC1 (stereo not drawn) [IND-5381],–,12%,16%,–
O=C(Nc1ccc(Cl)cc1)Nc1cc(Cl)cc(Cl)c1 [IND-5942],–,3%,8%,–
CC(=O)c1ccc(N2CCN(Cc3cccc(Br)c3)CC2)cc1 [IND-7046],–,14%,2%,–
CC(=O)c1ccc(N2CCN(Cc3ccc(Br)s3)CC2)cc1 [IND-7190],–,8%,12%,–
CC(=O)c1ccc(N2CCN(Cc3cccc(Cl)c3)CC2)cc1 [IND-7486],–,6%,12%,–
O=C(Nc1ccc(F)c(Cl)c1)Nc1ccc(Cl)c(Cl)c1 [IND-8255],–,2%,11%,–
O=C(Nc1ccccc1)Nc1ccc(F)c(Cl)c1 [IND-8314],–,7%,17%,–
CNCCc1c(-c2ccccc2)n(-c2ccccc2)c2ccccc12 [IND-10094],–,19%,21%,–
O=C(Nc1ccc(Cl)c(Cl)c1)NC(CC(=O)c1ccc([N+](=O)[O-])cc1)C(Cl)(Cl)Cl (stereo not drawn) [IND-10851],–,15%,19%,–
COc1cc(CN2CCN(c3cccc(C)c3C)CC2)cc(Br)c1O [IND-15461],–,–,3%,–
Cc1ccc2c(c1)c1c(n2CC(O)CO)C(=O)CCC1 (stereo not drawn) [IND-15474],–,11%,9%,–
COc1ccc(CN2CCN(c3ccc(C(C)=O)cc3)CC2)c(C)c1C [IND-17848],–,1%,24%,–
CC(=O)c1ccc(N2CCN(CC(C)CCC=C(C)C)CC2)cc1 (stereo not drawn) [IND-18721],–,–,10%,–
CC(=O)c1ccc(N2CCN(Cc3ccc(F)cc3F)CC2)cc1 [IND-18785],–,30%,20%,–
CC(=O)c1ccc(N2CCN(Cc3ccccc3Cl)CC2)cc1 [IND-19130],–,5%,2%,–
O=C(Nc1ccc(Cl)cc1)Nc1ccc(Cl)c(F)c1 [IND-19237],–,2%,26%,–
O=C(Nc1ccc(Cl)cc1)Nc1ccc(C(F)(F)F)cc1Cl [IND-19238],–,–,9%,–
Clc1ccc(N2CCN(C3CCSC3)CC2)cc1 (stereo not drawn) [IND-19847],–,–,3%,–
COc1ccc2cc1Oc1ccc(cc1)C[C@H]1c3cc(c(OC)cc3CCN1C)Oc1c(OC)c(OC)cc3c1[C@H](C2)N(C)CC3 [Tetrandine],5.009 µM,–,–,–
Enoxaparin,–,–,–,>10 (mg/L)

# Same assay, conditions: mouse
row,Compound,Potency (μM) Cell Viability
1,CC(=O)c1ccc2c(c1)N(CCCN(C)C)c1ccccc1S2 [Acepromazine],>10 µM
2,CCCCc1oc2ccccc2c1C(=O)c1cc(I)c(OCCN(CC)CC)c(I)c1 [Amiodarone],>10 µM
3,COc1ccccc1OCCNCC(O)COc1cccc2[nH]c3ccccc3c12 (stereo not drawn) [Carvedilol],6.096 µM
4,Nc1c(/N=N/c2ccc(-c3ccc(/N=N/c4cc(S(=O)(=O)O)c5ccccc5c4N)cc3)cc2)cc(S(=O)(=O)O)c2ccccc12 [Congo Red],>10 µM
5,CN1C[C@H](C(=O)N[C@]2(C)O[C@@]3(O)[C@@H]4CCCN4C(=O)[C@H](Cc4ccccc4)N3C2=O)C[C@@H]2c3cccc4[nH]cc(c34)C[C@H]21 [Dihydroergotamine],>10 µM

# System: PrP^Sc in nondividing ScN2a-cl3 cells
# Format: cell-based, mouse
# Conditions: SPC assay, nondividing cells
row,Compound,Inhibition of Baseline PrP^5c (%) Non-dividing Cells ELISA
1,CCN1CCN(c2ccc(Nc3ccnc4cc5ccccc5cc34)cc2)CC1 [IND-2118],51%
2,Cc1ccc2[nH]c3c(c2c1)CCCC3NCC12CC3CC(CC(C3)C1)C2 (stereo not drawn) [IND-4176],53%
3,Cc1ccc2[nH]c3c(c2c1)CCCC3NC1CCCCC1 (stereo not drawn) [IND-5381],48%
4,O=C(Nc1ccc(Cl)cc1)Nc1cc(Cl)cc(Cl)c1 [IND-5942],51%
5,CC(=O)c1ccc(N2CCN(Cc3cccc(Br)c3)CC2)cc1 [IND-7046],39%
6,CC(=O)c1ccc(N2CCN(Cc3ccc(Br)s3)CC2)cc1 [IND-7190],34%
7,CC(=O)c1ccc(N2CCN(Cc3cccc(Cl)c3)CC2)cc1 [IND-7486],31%
8,O=C(Nc1ccc(F)c(Cl)c1)Nc1ccc(Cl)c(Cl)c1 [IND-8255],61%
9,O=C(Nc1ccccc1)Nc1ccc(F)c(Cl)c1 [IND-8314],56%
10,CNCCc1c(-c2ccccc2)n(-c2ccccc2)c2ccccc12 [IND-10094],46%
11,O=C(Nc1ccc(Cl)c(Cl)c1)NC(CC(=O)c1ccc([N+](=O)[O-])cc1)C(Cl)(Cl)Cl (stereo not drawn) [IND-10851],61%
12,COc1cc(CN2CCN(c3cccc(C)c3C)CC2)cc(Br)c1O [IND-15461],48%
13,Cc1ccc2c(c1)c1c(n2CC(O)CO)C(=O)CCC1 (stereo not drawn) [IND-15474],39%
14,COc1ccc(CN2CCN(c3ccc(C(C)=O)cc3)CC2)c(C)c1C [IND-17848],41%
15,CC(=O)c1ccc(N2CCN(CC(C)CCC=C(C)C)CC2)cc1 (stereo not drawn) [IND-18721],55%
16,CC(=O)c1ccc(N2CCN(Cc3ccc(F)cc3F)CC2)cc1 [IND-18785],30%
17,CC(=O)c1ccc(N2CCN(Cc3ccccc3Cl)CC2)cc1 [IND-19130],41%
18,O=C(Nc1ccc(Cl)cc1)Nc1ccc(Cl)c(F)c1 [IND-19237],66%
19,O=C(Nc1ccc(Cl)cc1)Nc1ccc(C(F)(F)F)cc1Cl [IND-19238],63%
20,CC(=O)c1ccc(N2CCN(Cc3c(C)n(C)n(-c4ccccc4)c3=O)CC2)cc1 [IND-19672],35%
21,Clc1ccc(N2CCN(C3CCSC3)CC2)cc1 (stereo not drawn) [IND-19847],51%
22,COc1ccc2[nH]c3c(OC)ncnc3c2c1 [IND-22103],37%

# System: PrP^Sc in dividing ScN2a-cl3 cells
# Format: cell-based, mouse
# Conditions: AMT analogs tested for potency
row,Compound,EC50
1,"Cc1cccc(Nc2nc(-c3ccncc3)cs2)n1 [IND7, (6-Methyl-pyridin-2-yl)-(4-pyridin-4-yl-thiazol-2-yl)-amine]",1 µM
2,"Cc1ccc(Nc2nc(-c3ccncc3)cs2)nc1 [IND29, (5-Methyl-pyridin-2-yl)-(4-pyridin-4-yl-thiazol-2-yl)-amine]",1.57 µM
3,"Cc1ccc(Nc2nc(-c3c(-c4ccccc4)noc3C)cs2)nc1 [IND36, [4-(5-Methyl-3-phenyl-isoxazol-4-yl)-thiazol-2-yl]-(5-methyl-pyridin-2-yl)-amine]",> 32 µM
4,"COc1ccc(-c2csc(Nc3cc(C)ccn3)n2)cc1OC [IND42, [4-(3,4-Dimethoxy-phenyl)-thiazol-2-yl]-(4-methyl-pyridin-2-yl)-amine]",1 µM
5,"COc1ccc(-c2csc(Nc3ccc(C(F)(F)F)cn3)n2)cc1OC [IND43, [4-(3,4-Dimethoxy-phenyl)-thiazol-2-yl]-(5-trifluoromethyl-pyridin-2-yl)-amine]",2.53 µM
6,"Cc1ccnc(Nc2nc(-c3cc(-c4ccc(Cl)cc4)no3)cs2)c1 [IND64, {4-[3-(4-Chloro-phenyl)-isoxazol-5-yl]-thiazol-2-yl}-(4-methyl-pyridin-2-yl)-amine]",0.85 µM
7,"Cc1ccc(Nc2nc(-c3ccc(-c4ccccn4)s3)cs2)nc1 [IND76, (5-Methyl-pyridin-2-yl)-[4-(5-pyridin-2-yl-thiophen-2-yl)-thiazol-2-yl]-amine]",1.23 µM
8,"COc1ccc(-c2csc(Nc3cnccn3)n2)cc1OC [IND82, [4-(3,4-Dimethoxy-phenyl)-thiazol-2-yl]-pyrazin-2-yl-amine]",15.6 µM
9,"COc1ccc(-c2csc(Nc3cc4ccccc4cn3)n2)cc1 [IND86, Isoquinolin-3-yl-[4-(4-methoxy-phenyl)-thiazol-2-yl]-amine]",0.342 µM
10,"COc1ccc(-c2csc(Nc3ccccn3)n2)cc1OC [IND135, [4-(3,4-Dimethoxy-phenyl)-thiazol-2-yl]-pyridin-2-yl-amine]",1.23 µM

# Same assay, conditions: FDA-approved drugs, ScN2a-c13 assay, dividing cells; read-out: Potency (μM) ELISA (EC50)
row,Compound,EC50
1,CCOc1ccc(/N=N/c2ccc(N)cc2N)cc1 [Ethoxazine],4.76 µM
2,COc1ccc2cc1Oc1ccc(cc1)C[C@H]1c3cc(c(OC)cc3CCN1C)Oc1c(OC)c(OC)cc3c1[C@H](C2)N(C)CC3 [Tetrandine],2.15 µM

# Same assay, conditions: SPC assay, dividing cells
row,Compound,Inhibition of Baseline PrP^5c (%) Dividing Cells ELISA
1,CCN1CCN(c2ccc(Nc3ccnc4cc5ccccc5cc34)cc2)CC1 [IND-2118],76%
2,Cc1ccc2[nH]c3c(c2c1)CCCC3NCC12CC3CC(CC(C3)C1)C2 (stereo not drawn) [IND-4176],98%
3,Cc1ccc2[nH]c3c(c2c1)CCCC3NC1CCCCC1 (stereo not drawn) [IND-5381],27%
4,O=C(Nc1ccc(Cl)cc1)Nc1cc(Cl)cc(Cl)c1 [IND-5942],91%
5,CC(=O)c1ccc(N2CCN(Cc3cccc(Br)c3)CC2)cc1 [IND-7046],67%
6,CC(=O)c1ccc(N2CCN(Cc3ccc(Br)s3)CC2)cc1 [IND-7190],97%
7,CC(=O)c1ccc(N2CCN(Cc3cccc(Cl)c3)CC2)cc1 [IND-7486],84%
8,O=C(Nc1ccc(F)c(Cl)c1)Nc1ccc(Cl)c(Cl)c1 [IND-8255],92%
9,O=C(Nc1ccccc1)Nc1ccc(F)c(Cl)c1 [IND-8314],87%
10,CNCCc1c(-c2ccccc2)n(-c2ccccc2)c2ccccc12 [IND-10094],81%
11,O=C(Nc1ccc(Cl)c(Cl)c1)NC(CC(=O)c1ccc([N+](=O)[O-])cc1)C(Cl)(Cl)Cl (stereo not drawn) [IND-10851],83%
12,COc1cc(CN2CCN(c3cccc(C)c3C)CC2)cc(Br)c1O [IND-15461],22%
13,Cc1ccc2c(c1)c1c(n2CC(O)CO)C(=O)CCC1 (stereo not drawn) [IND-15474],14%
14,COc1ccc(CN2CCN(c3ccc(C(C)=O)cc3)CC2)c(C)c1C [IND-17848],95%
15,CC(=O)c1ccc(N2CCN(CC(C)CCC=C(C)C)CC2)cc1 (stereo not drawn) [IND-18721],78%
16,CC(=O)c1ccc(N2CCN(Cc3ccc(F)cc3F)CC2)cc1 [IND-18785],85%
17,CC(=O)c1ccc(N2CCN(Cc3ccccc3Cl)CC2)cc1 [IND-19130],86%
18,O=C(Nc1ccc(Cl)cc1)Nc1ccc(Cl)c(F)c1 [IND-19237],25%
19,O=C(Nc1ccc(Cl)cc1)Nc1ccc(C(F)(F)F)cc1Cl [IND-19238],17%
20,CC(=O)c1ccc(N2CCN(Cc3c(C)n(C)n(-c4ccccc4)c3=O)CC2)cc1 [IND-19672],64%
21,Clc1ccc(N2CCN(C3CCSC3)CC2)cc1 (stereo not drawn) [IND-19847],42%
22,COc1ccc2[nH]c3c(OC)ncnc3c2c1 [IND-22103],81%

# Same assay, conditions: Table 29; 2-AMT analogs tested for potency; usually n = 3 or more
row,Compound,EC50
1,"Cc1cccc(Nc2nc(-c3ccncc3)cs2)n1 [IND7, (6-Methyl-pyridin-2-yl)-(4-pyridin-4-yl-thiazol-2-yl)-amine]",1 µM
2,"Cc1ccc(Nc2nc(-c3ccncc3)cs2)nc1 [IND29, (5-Methyl-pyridin-2-yl)-(4-pyridin-4-yl-thiazol-2-yl)-amine]",1.57 µM
3,"Cc1ccc(Nc2nc(-c3c(-c4ccccc4)noc3C)cs2)nc1 [IND36, [4-(5-Methyl-3-phenyl-isoxazol-4-yl)-thiazol-2-yl]-(5-methyl-pyridin-2-yl)-amine]",> 32 µM
4,"COc1ccc(-c2csc(Nc3cc(C)ccn3)n2)cc1OC [IND42, [4-(3,4-Dimethoxy-phenyl)-thiazol-2-yl]-(4-methyl-pyridin-2-yl)-amine]",1 µM
5,"COc1ccc(-c2csc(Nc3ccc(C(F)(F)F)cn3)n2)cc1OC [IND43, [4-(3,4-Dimethoxy-phenyl)-thiazol-2-yl]-(5-trifluoromethyl-pyridin-2-yl)-amine]",2.53 µM
6,"Cc1ccnc(Nc2nc(-c3cc(-c4ccc(Cl)cc4)no3)cs2)c1 [IND64, {4-[3-(4-Chloro-phenyl)-isoxazol-5-yl]-thiazol-2-yl}-(4-methyl-pyridin-2-yl)-amine]",0.85 µM
7,"Cc1ccc(Nc2nc(-c3ccc(-c4ccccn4)s3)cs2)nc1 [IND76, (5-Methyl-pyridin-2-yl)-[4-(5-pyridin-2-yl-thiophen-2-yl)-thiazol-2-yl]-amine]",1.23 µM
8,"COc1ccc(-c2csc(Nc3cnccn3)n2)cc1OC [IND82, [4-(3,4-Dimethoxy-phenyl)-thiazol-2-yl]-pyrazin-2-yl-amine]",15.6 µM
9,"COc1ccc(-c2csc(Nc3cc4ccccc4cn3)n2)cc1 [IND86, Isoquinolin-3-yl-[4-(4-methoxy-phenyl)-thiazol-2-yl]-amine]",0.342 µM

# Same assay, conditions: read-out: Antiprion activity EC50; thienopyridine analogs
row,Compound,EC50
1,Nc1c(C(=O)Nc2cc(F)ccc2F)sc2nc(-c3ccncc3)ccc12 [IND-0024575],3.49 µM

# Same assay, conditions: read-out: Potency (μM) ELISA (EC50); FDA-approved drugs, ScN2a-c13 assay, dividing cells
row,Compound,EC50
1,CC(=O)c1ccc2c(c1)N(CCCN(C)C)c1ccccc1S2 [Acepromazine],6.93 µM
2,CN1CCc2cccc3c2[C@H]1Cc1ccc(O)c(O)c1-3 [Apomorphine],> 10 µM
3,COc1ccccc1OCCNCC(O)COc1cccc2[nH]c3ccccc3c12 (stereo not drawn) [Carvedilol],2.28 µM
4,Nc1c(/N=N/c2ccc(-c3ccc(/N=N/c4cc(S(=O)(=O)O)c5ccccc5c4N)cc3)cc2)cc(S(=O)(=O)O)c2ccccc12 [Congo Red],0.452 µM
5,CN1C[C@H](C(=O)N[C@]2(C)O[C@@]3(O)[C@@H]4CCCN4C(=O)[C@H](Cc4ccccc4)N3C2=O)C[C@@H]2c3cccc4[nH]cc(c34)C[C@H]21 [Dihydroergotamine],6.44 µM
